# In patent US20140243334A1, “SUBSTITUTED HYDOXAMIC ACIDS AND USES THEREOF” (Millennium Pharmaceuticals, Inc., priority 2010, published 2014):
# Biological target: T1, purified human HDAC6 (Homo sapiens, UniProt Q9UBN7)
# T1 construct: purchased BPS Bioscience 5006
# T1 sequence (Q9UBN7 1-1215): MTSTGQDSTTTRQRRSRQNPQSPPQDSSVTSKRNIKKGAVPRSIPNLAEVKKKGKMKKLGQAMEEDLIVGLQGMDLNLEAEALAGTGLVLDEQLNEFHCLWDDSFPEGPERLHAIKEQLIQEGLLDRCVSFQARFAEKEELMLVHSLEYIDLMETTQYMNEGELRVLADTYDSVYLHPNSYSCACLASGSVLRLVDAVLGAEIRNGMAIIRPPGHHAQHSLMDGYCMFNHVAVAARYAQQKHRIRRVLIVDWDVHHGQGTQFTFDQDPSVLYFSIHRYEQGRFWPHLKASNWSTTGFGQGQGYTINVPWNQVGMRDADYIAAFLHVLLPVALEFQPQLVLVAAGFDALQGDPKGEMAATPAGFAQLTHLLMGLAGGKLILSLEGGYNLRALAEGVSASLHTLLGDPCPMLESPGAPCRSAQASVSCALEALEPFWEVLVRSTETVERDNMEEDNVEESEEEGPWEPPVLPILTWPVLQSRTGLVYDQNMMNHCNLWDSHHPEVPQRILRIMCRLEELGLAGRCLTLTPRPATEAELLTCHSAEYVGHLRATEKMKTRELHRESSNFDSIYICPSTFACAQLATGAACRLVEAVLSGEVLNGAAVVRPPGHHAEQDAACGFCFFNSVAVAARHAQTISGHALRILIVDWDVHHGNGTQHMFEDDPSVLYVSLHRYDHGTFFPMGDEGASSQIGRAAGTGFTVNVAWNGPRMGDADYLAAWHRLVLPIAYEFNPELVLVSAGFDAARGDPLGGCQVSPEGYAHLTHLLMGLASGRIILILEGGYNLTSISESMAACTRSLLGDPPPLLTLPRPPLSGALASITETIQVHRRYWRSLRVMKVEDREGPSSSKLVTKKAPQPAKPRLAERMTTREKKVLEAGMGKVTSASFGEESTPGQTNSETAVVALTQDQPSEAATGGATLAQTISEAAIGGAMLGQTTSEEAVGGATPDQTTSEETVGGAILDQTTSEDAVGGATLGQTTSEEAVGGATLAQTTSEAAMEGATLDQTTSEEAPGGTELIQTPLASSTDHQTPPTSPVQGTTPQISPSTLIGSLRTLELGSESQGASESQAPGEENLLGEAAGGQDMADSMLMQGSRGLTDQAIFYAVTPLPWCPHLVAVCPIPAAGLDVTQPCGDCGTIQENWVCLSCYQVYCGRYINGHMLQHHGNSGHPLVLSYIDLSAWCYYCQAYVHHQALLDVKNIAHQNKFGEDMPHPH
# Assay: HDAC6 Enzyme Assay
# Format: biochemical
# Details: HDAC6 inhibition at a compound concentration of 0.412 μM; read-out: Percent Inhibition at 0.412 μM
# Experimental: To measure the inhibition of HDAC6 activity, purified human HDAC6 (BPS Bioscience; Cat. No. 5006) is incubated with substrate Ac-Arg-Gly-Lys(Ac)-AMC peptide (Bachem Biosciences; Cat. No. I-1925) for 1 hour at 30° C. in the presence of test compounds or vehicle DMSO control. The reaction is stopped with the HDAC inhibitor trichostatin A (Sigma; Cat. No. T8552) and the amount of Arg-Gly-Lys-AMC generated is quantitated by digestion with trypsin (Sigma; Cat. No. T1426) and subsequent measurement of the amount of AMC released using a fluorescent plate reader (Pherastar; BMG Technologies) set at Ex 340 nm and Em 460 nm. Concentration response curves are generated by calculating the fluorescence increase in test compound-treated samples relative to DMSO-treated controls, and enzyme inhibition (IC50) values are determined from those curves.
smiles,measurement,value
"O=C(NO)C1CCc2ccc(-c3cccc(NC(=O)C4CC4)c3)cc2C1 (stereo not shown) [Compound I-64, 7-{3-[(cyclopropylcarbonyl)amino]phenyl}-N-hydroxy-1,2,3,4-tetrahydronaphthalene-2-carboxamide]",inhibition at 0.412 µM,90%
"O=C(NO)C1CCc2cc(-c3ccc(Cl)cc3)ccc2C1 (stereo not shown) [Compound I-65, 6-(4-chlorophenyl)-N-hydroxy-1,2,3,4-tetrahydronaphthalene-2-carboxamide]",inhibition at 0.412 µM,68%
"O=C(NO)C1CCc2cc(-c3ccncc3)ccc2C1 (stereo not shown) [Compound I-66, N-hydroxy-6-pyridin-4-yl-1,2,3,4-tetrahydronaphthalene-2-carboxamide]",inhibition at 0.412 µM,80%
"COc1cccc(-c2ccc3c(c2)CC(C(=O)NO)CC3)c1 (stereo not shown) [Compound I-67, N-hydroxy-7-(3-methoxyphenyl)-1,2,3,4-tetrahydronaphthalene-2-carboxamide]",inhibition at 0.412 µM,81%
"COc1ccccc1-c1ccc2c(c1)CC(C(=O)NO)CC2 (stereo not shown) [Compound I-68, N-hydroxy-7-(2-methoxyphenyl)-1,2,3,4-tetrahydronaphthalene-2-carboxamide]",inhibition at 0.412 µM,76%
"COc1ccc(-c2ccc3c(c2)CC(C(=O)NO)CC3)cc1 (stereo not shown) [Compound I-69, N-hydroxy-7-(4-methoxyphenyl)-1,2,3,4-tetrahydronaphthalene-2-carboxamide]",inhibition at 0.412 µM,79%
"O=C(NO)C1CCc2ccc(-c3ccccc3Cl)cc2C1 (stereo not shown) [Compound I-70, 7-(2-chlorophenyl)-N-hydroxy-1,2,3,4-tetrahydronaphthalene-2-carboxamide]",inhibition at 0.412 µM,78%
"O=C(NO)C1CCc2ccc(-c3ccc(Cl)cc3)cc2C1 (stereo not shown) [Compound I-71, 7-(4-chlorophenyl)-N-hydroxy-1,2,3,4-tetrahydronaphthalene-2-carboxamide]",inhibition at 0.412 µM,74%
"O=C(NO)C1CCc2ccc(-c3ccc4cc[nH]c4c3)cc2C1 (stereo not shown) [Compound I-72, N-hydroxy-7-(1H-indol-6-yl)-1,2,3,4-tetrahydronaphthalene-2-carboxamide]",inhibition at 0.412 µM,87%
"O=C(NO)C1CCc2ccc(Oc3ccc(NCc4ccc(Cl)cc4)cc3)cc2C1 (stereo not shown) [Compound I-73, 7-{4-[(4-chlorobenzyl)amino]phenoxy}-N-hydroxy-1,2,3,4-tetrahydronaphthalene-2-carboxamide]",inhibition at 0.412 µM,64%
"CC(=O)Nc1cccc(-c2ccc3c(c2)CCC(C(=O)NO)C3)c1 (stereo not shown) [Compound I-74, 6-[3-(acetylamino)phenyl]-N-hydroxy-1,2,3,4-tetrahydronaphthalene-2-carboxamide]",inhibition at 0.412 µM,85%
"O=C(NO)C1CCc2ccc(-c3ccc4[nH]ccc4c3)cc2C1 (stereo not shown) [Compound I-75, N-hydroxy-7-(1H-indol-5-yl)-1,2,3,4-tetrahydronaphthalene-2-carboxamide]",inhibition at 0.412 µM,77%
"COc1ccc2c(c1)CC(C)(C(=O)NO)CC2 (stereo not shown) [Compound I-76, N-hydroxy-7-methoxy-2-methyl-1,2,3,4-tetrahydronaphthalene-2-carboxamide]",inhibition at 0.412 µM,0%
"O=C(NO)C1CCc2cc(NC(=O)C3CC3)ccc2C1 (stereo not shown) [Compound I-77, 6-[(cyclopropylcarbonyl)amino]-N-hydroxy-1,2,3,4-tetrahydronaphthalene-2-carboxamide]",inhibition at 0.412 µM,68%
"O=C(NO)C1CCc2cc(Nc3ccc(Cl)cc3)ccc2C1 (stereo not shown) [Compound I-78, 6-[(4-chlorophenyl)amino]-N-hydroxy-1,2,3,4-tetrahydronaphthalene-2-carboxamide]",inhibition at 0.412 µM,48%
"COc1cccc(Nc2ccc3c(c2)CCC(C(=O)NO)C3)c1 (stereo not shown) [Compound I-79, N-hydroxy-6-[(3-methoxyphenyl)amino]-1,2,3,4-tetrahydronaphthalene-2-carboxamide]",inhibition at 0.412 µM,43%
"COc1ccc(Nc2ccc3c(c2)CCC(C(=O)NO)C3)cc1 (stereo not shown) [Compound I-80, N-hydroxy-6-[(4-methoxyphenyl)amino]-1,2,3,4-tetrahydronaphthalene-2-carboxamide]",inhibition at 0.412 µM,43%
"O=C(NO)C1CCc2ccc(-c3ccc4[nH]cnc4c3)cc2C1 (stereo not shown) [Compound I-81, 7-(1H-benzimidazol-5-yl)-N-hydroxy-1,2,3,4-tetrahydronaphthalene-2-carboxamide]",inhibition at 0.412 µM,89%
"O=C(NO)C1CCc2ccc(-c3c[nH]c4ccccc34)cc2C1 (stereo not shown) [Compound I-82, N-hydroxy-7-(1H-indol-3-yl)-1,2,3,4-tetrahydronaphthalene-2-carboxamide]",inhibition at 0.412 µM,83%
"O=C(NO)C1CCc2cc(Nc3ccccc3Cl)ccc2C1 (stereo not shown) [Compound I-83, 6-[(2-chlorophenyl)amino]-N-hydroxy-1,2,3,4-tetrahydronaphthalene-2-carboxamide]",inhibition at 0.412 µM,37%
"COc1ccccc1Nc1ccc2c(c1)CCC(C(=O)NO)C2 (stereo not shown) [Compound I-84, N-hydroxy-6-[(2-methoxyphenyl)amino]-1,2,3,4-tetrahydronaphthalene-2-carboxamide]",inhibition at 0.412 µM,38%
"CC1(C(=O)Nc2ccc3c(c2)CCC(C(=O)NO)C3)CCNCC1 (stereo not shown) [Compound I-85, N-{6-[(hydroxyamino)carbonyl]-5,6,7,8-tetrahydronaphthalen-2-yl}-4-methylpiperidine-4-carboxamide]",inhibition at 0.412 µM,74%
"O=C(NO)C1CCc2ccc(-c3ccc4ccccc4c3)cc2C1 (stereo not shown) [Compound I-86, N-hydroxy-5,6,7,8-tetrahydro-2,2′-binaphthalene-7-carboxamide]",inhibition at 0.412 µM,73%
"O=C(NO)C1CCc2ccc(-c3cnc4[nH]ccc4c3)cc2C1 (stereo not shown) [Compound I-87, N-hydroxy-7-(1H-pyrrolo[2,3-b]pyridin-5-yl)-1,2,3,4-tetrahydronaphthalene-2-carboxamide]",inhibition at 0.412 µM,85%
"Cc1nnc(-c2cccc(-c3ccc4c(c3)CC(C(=O)NO)CC4)c2)o1 (stereo not shown) [Compound I-88, N-hydroxy-7-[3-(5-methyl-1,3,4-oxadiazol-2-yl)phenyl]-1,2,3,4-tetrahydronaphthalene-2-carboxamide]",inhibition at 0.412 µM,79%
"CC(C)Oc1ccc(-c2ccc3c(c2)CC(C(=O)NO)CC3)cc1 (stereo not shown) [Compound I-89, N-hydroxy-7-(4-isopropoxyphenyl)-1,2,3,4-tetrahydronaphthalene-2-carboxamide]",inhibition at 0.412 µM,66%
"O=C(NO)C1CCc2ccc(-c3ccc4c(c3)CCO4)cc2C1 (stereo not shown) [Compound I-90, 7-(2,3-dihydro-1-benzofuran-5-yl)-N-hydroxy-1,2,3,4-tetrahydronaphthalene-2-carboxamide]",inhibition at 0.412 µM,85%
"O=C(NO)C1CCc2ccc(-c3ccc4nonc4c3)cc2C1 (stereo not shown) [Compound I-91, 7-(2,1,3-benzoxadiazol-5-yl)-N-hydroxy-1,2,3,4-tetrahydronaphthalene-2-carboxamide]",inhibition at 0.412 µM,77%
"CN(C)c1ccc(-c2ccc3c(c2)CC(C(=O)NO)CC3)cc1 (stereo not shown) [Compound I-92, 7-[4-(dimethylamino)phenyl]-N-hydroxy-1,2,3,4-tetrahydronaphthalene-2-carboxamide]",inhibition at 0.412 µM,67%
"CN(C)S(=O)(=O)c1cccc(-c2ccc3c(c2)CC(C(=O)NO)CC3)c1 (stereo not shown) [Compound I-93, 7-{3-[(dimethylamino)sulfonyl]phenyl}-N-hydroxy-1,2,3,4-tetrahydronaphthalene-2-carboxamide]",inhibition at 0.412 µM,79%
"CCCc1ccc(-c2ccc3c(c2)CC(C(=O)NO)CC3)cc1 (stereo not shown) [Compound I-94, N-hydroxy-7-(4-propylphenyl)-1,2,3,4-tetrahydronaphthalene-2-carboxamide]",inhibition at 0.412 µM,62%
